Literature values, collected in patent publication US20260174914A1, “METHOD OF TREATING PSMA-EXPRESSING CANCERS” (ENDOCYTE, INC., priority 2020, published 2026).

Q: For “XOMA 089: fully human monoclonal antibody that specifically binds and neutralizes TGF-beta 1 and 2 ligands”, which “cross-reactivity with cynomolgus monkey TGF-β” value (cynomolgus monkey TGF-β) is on record?
A: Its value is “cross-reacts”.

Q: What about the “cross-reactivity with rodent TGF-β” value (rodent TGF-β) of the same substance?
A: Its value is “cross-reacts”.
